Patent US20240181081A1, “Compositions and Methods for Treatment of Myotonic Dystrophy Type 1 with CRISPR/SACAS9” (Vertex Pharmaceuticals Incorporated, priority 2021, published 2024)

What was measured:
[1] = system: CTG repeat expansion in the 3′ UTR of human DMPK gene; test: DOUBLE-cut screening: CTG repeat excision by loss-of-signal ddPCR in primary DM1 patient myoblasts; type: cell-based; conditions: sgRNA pair RNP, mean of upstream and downstream ddPCR assays; for % of CTG repeat excision efficiency by ddPCR (DNA-PKi): 3 μM Compound 6 for 48 hrs; for % of CTG repeat excision efficiency by ddPCR (Vehicle): DMSO 48 hrs
Outline: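 Paired upstream/downstream sgRNAs, each as RNP with recombinant SaCas9 (20 pmol protein:60 pmol sgRNA), mixed 1:1 and nucleofected into primary DM1 myoblasts; cells then given DMSO or 3 μM DNA-PKi Compound 6 for 48 hrs. Genomic DNA taken 72 hrs post-nucleofection; excision is mean of upstream and downstream loss-of-signal ddPCR, normalized to DMPK exon 1 reference.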

[2] = system: CUG RNA foci in primary DM1 patient myoblasts; test: DOUBLE-cut screening: FISH staining of RNA foci in primary DM1 patient myoblasts; type: cell-based, human; conditions: sgRNA pair RNP, 72 hrs post nucleofection; for % of CUG foci free nuclei (DNA-PKi): 3 μM Compound 6 for 48 hrs; for % of CUG foci free nuclei (Vehicle): DMSO 48 hrs
Outline: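 Primary DM1 patient myoblasts nucleofected with paired upstream/downstream sgRNA–SaCas9 RNPs (20 pmol protein, 60 pmol sgRNA each), then treated 48 hrs with DMSO or 3 μM DNA-PK inhibitor. At 72 hrs post nucleofection, CUG foci stained by Cy3-PNA(CAG)5 FISH with MBNL1 co-staining and quantified by high-content confocal imaging.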

Row | Substance | % of CTG repeat excision efficiency by ddPCR (DNA-PKi) [1] | % of CTG repeat excision efficiency by ddPCR (Vehicle) [1] | % of CUG foci free nuclei (DNA-PKi) [2] | % of CUG foci free nuclei (Vehicle) [2]
1 | SaU3 + SaD13: SaCas9 sgRNA pair, SEQ ID NOs: 3 and 21 (guide 1 ACTCCGGGGCCCCGTTGGAAGA; guide 2 CCCAACAACCCCAATCCACGTT; listed as DNA, chemistry not fully specified) | 57.82% | 30.34% | 74.02% | 38.07%
2 | SaU3 + SaD7: SaCas9 sgRNA pair, SEQ ID NOs: 3 and 15 (guide 1 ACTCCGGGGCCCCGTTGGAAGA; guide 2 GGGGCGCGGGATCCCCGAAAAA; listed as DNA, chemistry not fully specified) | 58.50% | 35.98% | 76.54% | 49.49%
3 | SaU1 + SaD10: SaCas9 sgRNA pair, SEQ ID NOs: 1 and 18 (guide 1 GCCCCGGAGTCGAAGACAGTTC; guide 2 TTGGGGGTCCTGTAGCCTGTCA; listed as DNA, chemistry not fully specified) | 61.44% | 37.72% | 84.12% | 75.91%
4 | SaU2 + SaD20: SaCas9 sgRNA pair, SEQ ID NOs: 2 and 28 (guide 1 ACTCAGTCTTCCAACGGGGCCC; guide 2 AGATGGAGGGCCTTTTATTCGC; listed as DNA, chemistry not fully specified) | 61.08% | 36.35% | 82.08% | 74.86%
5 | SaU8 + SaD18: SaCas9 sgRNA pair, SEQ ID NOs: 8 and 26 (guide 1 GGCTCGAAGGGTCCTTGTAGCC; guide 2 GGGCCTTTTATTCGCGAGGGTC; listed as DNA, chemistry not fully specified) | 44.51% | 18.17% | 70.76% | 36.66%
6 | SaU1 + SaD19: SaCas9 sgRNA pair, SEQ ID NOs: 1 and 27 (guide 1 GCCCCGGAGTCGAAGACAGTTC; guide 2 AGGACCCCCACCCCCGACCCTC; listed as DNA, chemistry not fully specified) | 52.62% | 32.74% | 76.49% | 49.44%
7 | SaU8 + SaD5: SaCas9 sgRNA pair, SEQ ID NOs: 8 and 13 (guide 1 GGCTCGAAGGGTCCTTGTAGCC; guide 2 GGGTTTGGCAAAAGCAAATTTC; listed as DNA, chemistry not fully specified) | 58.77% | 49.47% | 84.28% | 72.77%
8 | SaU7 +SaD11: SaCas9 sgRNA pair, SEQ ID NOs: 7 and 19 (guide 1 CGCGGCCGGCGAACGGGGCTCG; guide 2 CAAAACGTGGATTGGGGTTGTT; listed as DNA, chemistry not fully specified) | 51.90% | 25.10% | 73.38% | 36.96%
9 | SaU7 + SaD7: SaCas9 sgRNA pair, SEQ ID NOs: 7 and 15 (guide 1 CGCGGCCGGCGAACGGGGCTCG; guide 2 GGGGCGCGGGATCCCCGAAAAA; listed as DNA, chemistry not fully specified) | 64.88% | 32.55% | 85.03% | 41.68%
10 | SaU2 + SaD17: SaCas9 sgRNA pair, SEQ ID NOs: 2 and 25 (guide 1 ACTCAGTCTTCCAACGGGGCCC; guide 2 TTTATTCGCGAGGGTCGGGGGT; listed as DNA, chemistry not fully specified) | 52.34% | 31.11% | 78.68% | 55.20%
11 | SaU3 + SaD2: SaCas9 sgRNA pair, SEQ ID NOs: 3 and 10 (guide 1 ACTCCGGGGCCCCGTTGGAAGA; guide 2 TCGGCCAGGCTGAGGCCCTGAC; listed as DNA, chemistry not fully specified) | 54.49% | 50.85% | 82.73% | 77.08%
12 | SaU3 + SaD15: SaCas9 sgRNA pair, SEQ ID NOs: 3 and 23 (guide 1 ACTCCGGGGCCCCGTTGGAAGA; guide 2 GACAATAAATACCGAGGAATGT; listed as DNA, chemistry not fully specified) | 65.28% | 37.42% | 86.64% | 74.00%
13 | SaU7 + SaD6: SaCas9 sgRNA pair, SEQ ID NOs: 7 and 14 (guide 1 CGCGGCCGGCGAACGGGGCTCG; guide 2 CTTTTGCCAAACCCGCTTTTTC; listed as DNA, chemistry not fully specified) | 55.71% | 22.54% | 67.73% | 24.89%
14 | SaU8 + SaD6: SaCas9 sgRNA pair, SEQ ID NOs: 8 and 14 (guide 1 GGCTCGAAGGGTCCTTGTAGCC; guide 2 CTTTTGCCAAACCCGCTTTTTC; listed as DNA, chemistry not fully specified) | 40.19% | 23.57% | 65.28% | 32.43%
15 | SaU8 +SaD10: SaCas9 sgRNA pair, SEQ ID NOs: 8 and 18 (guide 1 GGCTCGAAGGGTCCTTGTAGCC; guide 2 TTGGGGGTCCTGTAGCCTGTCA; listed as DNA, chemistry not fully specified) | 69.07% | 48.45% | 82.92% | 74.46%
16 | SaU8 + SaD17: SaCas9 sgRNA pair, SEQ ID NOs: 8 and 25 (guide 1 GGCTCGAAGGGTCCTTGTAGCC; guide 2 TTTATTCGCGAGGGTCGGGGGT; listed as DNA, chemistry not fully specified) | 49.09% | 30.50% | 79.35% | 52.34%
17 | SaU1 + SaD18: SaCas9 sgRNA pair, SEQ ID NOs: 1 and 26 (guide 1 GCCCCGGAGTCGAAGACAGTTC; guide 2 GGGCCTTTTATTCGCGAGGGTC; listed as DNA, chemistry not fully specified) | 47.64% | 19.40% | 69.94% | 29.85%
18 | SaU3 + SaD4: SaCas9 sgRNA pair, SEQ ID NOs: 3 and 12 (guide 1 ACTCCGGGGCCCCGTTGGAAGA; guide 2 ACTTTGCGAACCAACGATAGGT; listed as DNA, chemistry not fully specified) | 64.28% | 47.22% | 87.42% | 83.67%
19 | SaU4 + SaD11: SaCas9 sgRNA pair, SEQ ID NOs: 4 and 19 (guide 1 CCAGTTCACAACCGCTCCGAGC; guide 2 CAAAACGTGGATTGGGGTTGTT; listed as DNA, chemistry not fully specified) | 54.55% | 36.98% | 78.29% | 58.71%
20 | SaU1 + SaD7: SaCas9 sgRNA pair, SEQ ID NOs: 1 and 15 (guide 1 GCCCCGGAGTCGAAGACAGTTC; guide 2 GGGGCGCGGGATCCCCGAAAAA; listed as DNA, chemistry not fully specified) | 56.69% | 34.21% | 80.16% | 49.51%
21 | SaU2 + SaD5: SaCas9 sgRNA pair, SEQ ID NOs: 2 and 13 (guide 1 ACTCAGTCTTCCAACGGGGCCC; guide 2 GGGTTTGGCAAAAGCAAATTTC; listed as DNA, chemistry not fully specified) | 59.19% | 38.64% | 83.71% | 75.82%
